Experiments:
[1] = 308.15 K, 101.33 kPa, Liquid; for speed of sound: Sing-around technique in a fixed-path interferometer; for mass density: Vibrating tube method
[2] = xn = mol fraction of the nth substance listed; settings: 308.15 K, 101 kPa, Liquid; for excess molar volume: Direct dilatometry; for speed of sound: Sing-around technique in a fixed-path interferometer

OCCO [1,2-ethanediol]
[1]
Settings	speed of sound [m/s]	viscosity [mPa·s]
–	1633.4	11.35

OCCCCCO [1,5-pentanediol]
[1]
Settings	mass density [kg/m3]	speed of sound [m/s]	viscosity [mPa·s]
–	974.3	1566.1	64

OCCCCCO [1,5-pentanediol] + O=C1CCCN1
[2]
Settings	excess molar volume [m3/mol]	speed of sound [m/s]	viscosity [mPa·s]
x1 = 0.0022	1e-09	–	–
x1 = 0.009	3e-09	–	–
x1 = 0.0129	5e-09	–	–
x1 = 0.0168	6e-09	–	–
x1 = 0.0269	1e-08	–	–
x1 = 0.0298	–	1597.5	9.401
x1 = 0.0326	1.5e-08	–	–
x1 = 0.0454	1.7e-08	–	–
x1 = 0.0514	–	1595.7	9.774
x1 = 0.0619	2.7e-08	–	–
x1 = 0.0915	3.4e-08	–	–
x1 = 0.1017	–	1591.8	10.74
x1 = 0.1149	4e-08	–	–
x1 = 0.1375	4.4e-08	–	–
x1 = 0.1536	–	1588.7	11.8
x1 = 0.1895	5.2e-08	–	–
x1 = 0.2008	–	1586.9	12.89
x1 = 0.2539	5.9e-08	–	–
x1 = 0.293	6.4e-08	–	–
x1 = 0.2942	–	1583.5	15.32
x1 = 0.3268	6.7e-08	–	–
x1 = 0.3769	7e-08	–	–
x1 = 0.3886	–	1580.9	18.07
x1 = 0.4209	7e-08	–	–
x1 = 0.4564	7.1e-08	–	–
x1 = 0.479	–	1578.8	21.15
x1 = 0.5091	7e-08	–	–
x1 = 0.5407	6.9e-08	–	–
x1 = 0.5779	6.6e-08	–	–
x1 = 0.582	–	1577.1	24.71
x1 = 0.601	6.1e-08	–	–
x1 = 0.6363	5.6e-08	–	–
x1 = 0.6673	5.3e-08	–	–
x1 = 0.6827	–	1575.3	29.13
x1 = 0.7035	4.7e-08	–	–
x1 = 0.7347	4.2e-08	–	–
x1 = 0.7812	–	1573	36.21
x1 = 0.7879	3.3e-08	–	–
x1 = 0.822	2.8e-08	–	–
x1 = 0.8319	–	1571.6	41.2
x1 = 0.8461	2.6e-08	–	–
x1 = 0.8694	2.3e-08	–	–
x1 = 0.8947	1.8e-08	–	–
x1 = 0.9095	–	1569.4	50.56
x1 = 0.9143	1.3e-08	–	–
x1 = 0.9392	–	1568.6	54.65
x1 = 0.9428	1.1e-08	–	–
x1 = 0.9583	7e-09	–	–
x1 = 0.9749	–	1567.3	59.95
x1 = 0.9783	3e-09	–	–

O=C1CCCN1 [2-pyrrolidinone]
[1]
Settings	mass density [kg/m3]	speed of sound [m/s]	viscosity [mPa·s]
–	1097.14	1600	8.922

OCCCO [propan-1,3-diol]
[1]
Settings	mass density [kg/m3]	speed of sound [m/s]	viscosity [mPa·s]
–	1042.7	1604.5	26.44

From the NIST ThermoML archive (doi:10.1016/j.jct.2007.08.005)
